Test results: article PMC7765920 (Molecules, 2020)
Where two headings read alike, the source gives them in different places.

What was measured:
human recombinant MAO-A [1] = biological target: T1, human recombinant MAO-A (Homo sapiens, UniProt P21397); assay: MAO-GLO luminescence assay of MAO-A catalytic activity; type: biochemical; details: read-out: MAO-A residual activity
T1 sequence (P21397 1-527): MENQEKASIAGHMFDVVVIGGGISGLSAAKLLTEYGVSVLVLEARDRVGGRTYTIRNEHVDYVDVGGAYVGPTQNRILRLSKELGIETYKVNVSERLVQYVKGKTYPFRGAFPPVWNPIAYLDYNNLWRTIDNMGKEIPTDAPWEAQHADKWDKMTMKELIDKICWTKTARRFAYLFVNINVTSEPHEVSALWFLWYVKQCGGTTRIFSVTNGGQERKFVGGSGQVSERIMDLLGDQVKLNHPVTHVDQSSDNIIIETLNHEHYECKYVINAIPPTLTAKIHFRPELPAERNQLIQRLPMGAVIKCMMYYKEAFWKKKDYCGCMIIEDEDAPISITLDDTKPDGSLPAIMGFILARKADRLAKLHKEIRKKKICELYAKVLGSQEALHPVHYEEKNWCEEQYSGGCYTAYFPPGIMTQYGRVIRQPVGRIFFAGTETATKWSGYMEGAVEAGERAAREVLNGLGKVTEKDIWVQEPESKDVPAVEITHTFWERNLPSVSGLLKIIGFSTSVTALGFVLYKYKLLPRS
Experimental: (§1) Optimization of the compounds, however, aimed predominantly at elimination of MAO-A-inhibitory activity while keeping DYRK1A inhibitory potency, and not at achieving high selectivity for DYRK1A over CLK1. The tests were performed as described by us before in detail. Due to the very large number of test compounds (more than 60), a first screening was performed at a single inhibitor concentration of 1 µM.
(§2) Inhibitors were dissolved in DMSO at a concentration of 10 mM and stored at […]. Working solutions were prepared to achieve a final concentration of 1 µM in the enzyme assays.
Catalytic activity of monoamine oxidase A (MAO-A) was measured by using the luminescence-based MAO-GLO^TM Assay from Promega. Recombinant MAO-A converts a luminogenic MAO substrate into luciferin, which is, in turn, luminometrically detected in a luciferase reaction. The amount of light produced is directly proportional to MAO activity. […] Inhibitory effects of the tested compounds were calculated relative to the activity of control reactions that were run in the absence of inhibitors.

[2] = biological target: T2, GST-DYRK1A-ΔC (amino acids 1–499 of rat DYRK1A) (Rattus norvegicus, UniProt Q63470); assay: Kinase-GLO luminescent assay of DYRK1A catalytic activity; type: biochemical; details: read-out: DYRK1A residual activity
T2 construct: containing amino acids 1–499 of rat DYRK1A; made in house; host or cells: E. coli
Experimental: as §1, §2
(§3) Recombinant kinases were purified from E. coli as GST (glutathione S-transferase) fusion constructs by affinity adsorption to glutathione-Sepharose. […] Catalytic activity of the kinases was measured with the help of the Kinase-GLO^TM Luminescent Assay from Promega. Assays were performed in a total volume of 10 μL in kinase buffer (25 mM Hepes pH 7.4, 0.5 mM DTT, 5 mM MgCl2, 5 μM ATP) with appropriate peptide substrates (20 μM DYRKtide for the DYRKs and 100 μM DYRKtide for HIPK2, […]; or 100 μM RS peptide for CLK1, […]). Kinases amounts in the assays were adjusted so that approximately 90% of the ATP in the assay was consumed in control samples without inhibitor. Kinase reactions were incubated at room temperature for 30 min before 10 μL Kinase-GLO reagent was added for luminometric measurement of the ATP that was not consumed by the kinases. After incubation at room temperature for an additional 10 min, luminescence was recorded for 1 s (Berthold Orion Microplate Luminometer). ATP consumption in the control samples without inhibitor was set as 100% catalytic activity, and the inhibitory effects of the test compounds were calculated relative to this value.

MAO-A = tested on: MAO-A; set-up: method as in PMID 21183355; details: compared with harmine; cited from earlier work
[3] = biological target: T3, GST-CLK1cat (amino acids 141–484 of human CLK1) (Homo sapiens, UniProt P49759); assay: Kinase-GLO luminescent assay of CLK1 catalytic activity; type: biochemical; details: read-out: CLK1 residual activity
T3 construct: containing amino acids 141–484 of human CLK1; made in house; host or cells: E. coli
Experimental: as §1, §2, §3

human recombinant MAO-A [4] = biological target: T1, human recombinant MAO-A; set-up: method as in PMID 26192590; details: 95% confidence intervals in parentheses; cited from earlier work
[5] = Solubility as observed in the enzyme assays; details: could not be analyzed properly in the enzyme assays
[6] = tested on: GST-DYRK1A-ΔC (amino acids 1–499 of rat DYRK1A); assay: Kinase-GLO luminescent assay of DYRK1A catalytic activity; type: biochemical; details: ratio of the MAO-A and DYRK1A IC50 values of Table 2
DYRK3 = details: compared with DYRK1A/DYRK1B; cited from earlier work
DYRK1A = details: ATP competitive; cited from earlier work
DYRK1B = details: ATP competitive; cited from earlier work
DYRK2 = details: compared with DYRK1A/DYRK1B; cited from earlier work
DYRK4 = details: cited from earlier work
[7] = 1 µM inhibitor concentration, residual activity relative to control without inhibitor

T3 sequence (P49759 141-484): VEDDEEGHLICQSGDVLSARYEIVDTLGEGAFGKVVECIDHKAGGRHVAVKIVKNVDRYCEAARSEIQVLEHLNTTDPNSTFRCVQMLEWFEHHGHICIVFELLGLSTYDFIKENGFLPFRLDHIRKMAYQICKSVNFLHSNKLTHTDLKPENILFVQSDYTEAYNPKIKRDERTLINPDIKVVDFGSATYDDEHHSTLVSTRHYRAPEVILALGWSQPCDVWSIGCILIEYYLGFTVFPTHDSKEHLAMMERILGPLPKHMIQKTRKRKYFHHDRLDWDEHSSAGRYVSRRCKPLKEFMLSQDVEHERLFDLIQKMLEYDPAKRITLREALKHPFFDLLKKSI

Cc1nccc2c1[nH]c1cc(OCCN(C)C)ccc12 [AnnH62]
remaining activity at 1 µM (human recombinant MAO-A [1]; [7]): 22%
remaining activity at 1 µM [2, 7]: 95%
Factor of reduction of MAO-A inhibition (MAO-A): 60
remaining activity at 1 µM [3, 7]: 100%

COc1ccc2c3ccnc(Cl)c3n(CC#N)c2c1 [AnnH75, 2-(1-Chloro-7-methoxy-9H-pyrido[3,4-b]indol-9-yl)acetonitrile]
remaining activity at 1 µM (human recombinant MAO-A [1]; [7]): 119%
remaining activity at 1 µM [2]: 10%
IC50 (human recombinant MAO-A [4]): > 10000 nM

O=c1[nH]ccc2c1[nH]c1c(Cl)c(Cl)ccc12 [AnnH65, 7,8-Dichloro-2,9-dihydro-1H-pydrido[3,4-b]indol-1-one]
remaining activity at 1 µM [2, 7]: 100%
Solubility [5]: very poor

COc1ccc2c3ccnc(C)c3n(C(C)C#N)c2c1 (racemic) [AnnH43, (±)-2-(7-Methoxy-1-methyl-9H-pyrido[3,4-b]indol-9-yl)propanenitrile]
remaining activity at 1 µM (human recombinant MAO-A [1]; [7]): 102%
remaining activity at 1 µM [2, 7]: 5%
Selectivity for DYRK1A over MAO-A [6]: 26
remaining activity at 1 µM [3, 7]: 10%

COc1ccc2c(c1)[nH]c1c(C)nccc12 [harmine]
remaining activity at 1 µM (human recombinant MAO-A [1]): 3%
DYRK3 inhibition (DYRK3): only inhibited at much higher concentrations
remaining activity at 1 µM [2]: 27%
IC50 (DYRK1B): 33 to 170 nM
DYRK2 inhibition (DYRK2): only inhibited at much higher concentrations
DYRK4 inhibition (DYRK4): basically resistant
remaining activity at 1 µM [3]: 23%
